Reference: ChEMBL document CHEMBL1201862, “PubChem BioAssay data set” (2004)
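Grown in 96-well plates, cells were treated for 48 hours with each compound at five concentrations. Insufficient inhibition: endpoint recorded as highest concentration tested. Abbreviation: GI50, concentration required for 50% inhibition of growth.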 The source made the active and inactive calls. Cut-off read from the data, not from the text of the source: active = GI50 up to about 1.1 µM and inactive = higher.

How the values were obtained:
Assay in all cases: inhibition of tumour cell growth, NCI panel, 48 h
[1] = tested on: 786-0
[2] = tested on: A549
[3] = tested on: ACHN
[4] = tested on: BT-549
[5] = tested on: CCRF-CEM
[6] = tested on: COLO 205
[7] = tested on: DU-145
[8] = tested on: HCT-116
[9] = tested on: HCT-15
[10] = tested on: HL-60
[11] = tested on: HOP-62
[12] = tested on: HOP-92
[13] = tested on: HT-29
[14] = tested on: Hs-578T
[15] = tested on: IGROV-1
[16] = tested on: K562
[17] = tested on: KM12
[18] = tested on: LOX IMVI
[19] = tested on: M14
[20] = tested on: MCF7
[21] = tested on: MDA-MB-231
[22] = tested on: MDA-N
[23] = tested on: MOLT-4
[24] = tested on: Malme-3M
[25] = tested on: NCI-H23
[26] = tested on: NCI-H460
[27] = tested on: NCI-H522
[28] = tested on: NCI/ADR-RES
[29] = tested on: OVCAR-4
[30] = tested on: OVCAR-5
[31] = tested on: OVCAR-8
[32] = tested on: PC-3
[33] = tested on: RPMI-8226
[34] = tested on: RXF 393
[35] = tested on: SF-268
[36] = tested on: SF-295
[37] = tested on: SF-539
[38] = tested on: SK-MEL-28
[39] = tested on: SK-MEL-2
[40] = tested on: SK-MEL-5
[41] = tested on: SK-OV-3
[42] = tested on: SN12C
[43] = tested on: SNB-19
[44] = tested on: SNB-75
[45] = tested on: SW-620
[46] = tested on: T47D
[47] = tested on: TK-10
[48] = tested on: U-251
[49] = tested on: UACC-257
[50] = tested on: UACC-62
[51] = tested on: UO-31
[52] = tested on: A498
[53] = tested on: CAKI-1
[54] = tested on: EKVX
[55] = tested on: MDA-MB-435
[56] = tested on: NCI-H226
[57] = tested on: OVCAR-3
[58] = tested on: SR

Cc1ccc(S(=O)(=O)NC(=O)NCC(N)=O)cc1
GI50 [1]: > 100 µM (inactive) | GI50 [2]: > 100 µM (inactive) | GI50 [3]: > 100 µM (inactive) | GI50 [4]: > 100 µM (inactive) | GI50 [5]: > 100 µM (inactive) | GI50 [6]: > 100 µM (inactive) | GI50 [7]: > 100 µM (inactive) | GI50 [8]: > 100 µM (inactive) | GI50 [9]: > 100 µM | GI50 [10]: > 100 µM (inactive) | GI50 [11]: > 100 µM (inactive) | GI50 [12]: > 100 µM (inactive) | GI50 [13]: > 100 µM (inactive) | GI50 [14]: > 100 µM (inactive) | GI50 [15]: > 100 µM (inactive) | GI50 [16]: > 100 µM (inactive) | GI50 [17]: > 100 µM (inactive) | GI50 [18]: > 100 µM (inactive) | GI50 [19]: > 100 µM (inactive) | GI50 [20]: > 100 µM (inactive) | GI50 [21]: > 100 µM (inactive) | GI50 [22]: > 100 µM (inactive) | GI50 [23]: > 100 µM (inactive) | GI50 [24]: > 100 µM (inactive) | GI50 [25]: > 100 µM (inactive) | GI50 [26]: > 100 µM (inactive) | GI50 [27]: > 100 µM (inactive) | GI50 [28]: > 100 µM (inactive) | GI50 [29]: > 100 µM (inactive) | GI50 [30]: > 100 µM (inactive) | GI50 [31]: > 100 µM (inactive) | GI50 [32]: > 100 µM (inactive) | GI50 [33]: > 100 µM (inactive) | GI50 [34]: > 100 µM (inactive) | GI50 [35]: > 100 µM (inactive) | GI50 [36]: > 100 µM (inactive) | GI50 [37]: > 100 µM (inactive) | GI50 [38]: > 100 µM (inactive) | GI50 [39]: > 100 µM (inactive) | GI50 [40]: > 100 µM (inactive) | GI50 [41]: > 100 µM (inactive) | GI50 [42]: > 100 µM (inactive) | GI50 [43]: > 100 µM (inactive) | GI50 [44]: > 100 µM (inactive) | GI50 [45]: > 100 µM (inactive) | GI50 [46]: > 100 µM (inactive) | GI50 [47]: > 100 µM (inactive) | GI50 [48]: > 100 µM (inactive) | GI50 [49]: > 100 µM (inactive) | GI50 [50]: > 100 µM (inactive) | GI50 [51]: > 100 µM (inactive)

CC(/C=C/C(O)=C1/C(=O)CNC1=O)=C\[C@@H](C)[C@H]1O[C@@]2(C)O[C@H](C(=O)[C@@H]3O[C@@]32C)[C@@H]1C
GI50 [1]: 16.7 µM (inactive) | GI50 [52]: 14.3 µM (inactive) | GI50 [3]: 19.6 µM (inactive) | GI50 [4]: 15.8 µM (inactive) | GI50 [53]: 19.4 µM (inactive) | GI50 [5]: 7.24 µM (inactive) | GI50 [6]: 20.7 µM (inactive) | GI50 [7]: 18.9 µM (inactive) | GI50 [54]: 17.7 µM (inactive) | GI50 [8]: 18.9 µM (inactive) | GI50 [9]: 18.4 µM | GI50 [10]: 11.7 µM (inactive) | GI50 [11]: 22.2 µM (inactive) | GI50 [13]: 21.9 µM (inactive) | GI50 [14]: 24.9 µM (inactive) | GI50 [15]: 20.4 µM (inactive) | GI50 [16]: 19.8 µM (inactive) | GI50 [17]: 20 µM (inactive) | GI50 [18]: 14.5 µM (inactive) | GI50 [19]: 31.8 µM (inactive) | GI50 [20]: 19.7 µM (inactive) | GI50 [21]: 18.4 µM (inactive) | GI50 [55]: 28.2 µM (inactive) | GI50 [22]: 35.8 µM (inactive) | GI50 [23]: 14.7 µM (inactive) | GI50 [24]: 18.1 µM (inactive) | GI50 [56]: 21.2 µM (inactive) | GI50 [25]: 23.5 µM (inactive) | GI50 [28]: 26.6 µM (inactive) | GI50 [57]: 18.9 µM (inactive) | GI50 [30]: 18.3 µM (inactive) | GI50 [31]: 20.2 µM (inactive) | GI50 [32]: 14 µM (inactive) | GI50 [33]: 12.2 µM (inactive) | GI50 [34]: 1.14 µM (inactive) | GI50 [35]: 21.1 µM (inactive) | GI50 [37]: 18.7 µM (inactive) | GI50 [38]: 17.6 µM (inactive) | GI50 [39]: 22.7 µM (inactive) | GI50 [40]: 17.5 µM (inactive) | GI50 [41]: 21.5 µM (inactive) | GI50 [42]: 20.3 µM (inactive) | GI50 [43]: 22.9 µM (inactive) | GI50 [44]: 34.8 µM (inactive) | GI50 [45]: 29.8 µM (inactive) | GI50 [46]: 15.1 µM (inactive) | GI50 [47]: 19.2 µM (inactive) | GI50 [48]: 19.5 µM (inactive) | GI50 [49]: 15.3 µM (inactive) | GI50 [50]: 16.7 µM (inactive) | GI50 [51]: 13.8 µM (inactive)

COC1=CC(=O)C2=C(C1=O)[C@H]1CC[C@]3(C)[C@@H](OC(C)=O)CC[C@H]3[C@@H]1CC2
GI50 [1]: 55.6 µM (inactive) | GI50 [52]: > 100 µM (inactive) | GI50 [2]: > 100 µM (inactive) | GI50 [3]: 35.1 µM (inactive) | GI50 [4]: > 100 µM (inactive) | GI50 [53]: 49 µM (inactive) | GI50 [5]: 25.4 µM (inactive) | GI50 [6]: 44.2 µM (inactive) | GI50 [7]: 67.8 µM (inactive) | GI50 [54]: 13.6 µM (inactive) | GI50 [8]: 29.3 µM (inactive) | GI50 [9]: 49.5 µM | GI50 [10]: 16.4 µM (inactive) | GI50 [11]: > 100 µM (inactive) | GI50 [12]: 7.93 µM (inactive) | GI50 [13]: 20.8 µM (inactive) | GI50 [14]: 38.3 µM (inactive) | GI50 [15]: 25.2 µM (inactive) | GI50 [16]: 44.4 µM (inactive) | GI50 [17]: 60.3 µM (inactive) | GI50 [18]: 15.1 µM (inactive) | GI50 [19]: > 100 µM (inactive) | GI50 [21]: 17 µM (inactive) | GI50 [55]: 19.2 µM (inactive) | GI50 [22]: 28.6 µM (inactive) | GI50 [23]: 20.2 µM (inactive) | GI50 [24]: 30.3 µM (inactive) | GI50 [56]: 75.2 µM (inactive) | GI50 [25]: 40.3 µM (inactive) | GI50 [26]: 71 µM (inactive) | GI50 [27]: > 100 µM (inactive) | GI50 [28]: 32.7 µM (inactive) | GI50 [57]: > 100 µM (inactive) | GI50 [29]: 16.5 µM (inactive) | GI50 [30]: 37.8 µM (inactive) | GI50 [31]: 23.9 µM (inactive) | GI50 [32]: 39.9 µM (inactive) | GI50 [33]: 31 µM (inactive) | GI50 [34]: 61.2 µM (inactive) | GI50 [35]: 42.1 µM (inactive) | GI50 [36]: 92.3 µM (inactive) | GI50 [37]: 75.3 µM (inactive) | GI50 [38]: > 100 µM (inactive) | GI50 [39]: 37.5 µM (inactive) | GI50 [40]: 21.4 µM (inactive) | GI50 [41]: > 100 µM (inactive) | GI50 [42]: 95.9 µM (inactive) | GI50 [43]: > 100 µM (inactive) | GI50 [44]: > 100 µM (inactive) | GI50 [58]: 37.4 µM (inactive) | GI50 [45]: > 100 µM (inactive) | GI50 [46]: 23.2 µM (inactive) | GI50 [47]: > 100 µM (inactive) | GI50 [48]: 30.3 µM (inactive) | GI50 [49]: 27.1 µM (inactive) | GI50 [51]: > 100 µM (inactive)
